The values that follow come from PubChem BioAssay (NCI).

Structures are written as SMILES.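 Where inhibition never reached the appropriate level, the endpoint shown equals the highest concentration tested. Otherwise, values were interpolated linearly from a five-concentration, 48-hour dose response in 96-well plates. GI50: concentration for 50% inhibition of growth. The concentration for full growth arrest is given as TGI.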

The first experiment concerns RXF 393 renal. The experiment in a line: NCI-60 cell line screen, 48 h.
With `O=C1NCC2(CCN(CCCC3(c4ccc(F)cc4)OCCO3)CC2)N1c1ccccc1`, the TGI is above 100 µM.

Consider `O=C1c2ccccc2-c2c1c(-c1ccc(F)cc1)nc1ccc3ccccc3c21`, for which the TGI is above 100 µM.

`O=C(Nc1nccs1)c1c(O)nc2sccn2c1=O` returned a TGI above 10 µM.

On to `CO[C@H]1/C=C(/C)CCC[C@H](C)[C@H](O)[C@@H](C)C(=O)C(C)(C)[C@@H](O)CC(=O)O[C@@H]1/C(C)=C/c1csc(C)n1`, for which the GI50 is 0.0187 µM and the TGI was 0.0725 µM.

With `CCC1(CC)C(=O)NN(C(=O)c2ccccc2)C1=O`, the TGI was above 100 µM.

The compound `CC1CCC(C(=O)O)(C(Br)C(=O)O)CC1` (stereo unspecified) returned a TGI above 100 µM.

The compound `CN(C)c1ccc(C(=N/N=C2\C(=O)Nc3ccccc32)c2ccc(N(C)C)cc2)cc1` showed a TGI of 1.23 µM.

The compound `O=[N+]([O-])C(/C=C(\Cl)n1nnc2ccccc21)=C(/Cl)n1nnc2ccccc21` came in with a TGI above 100 µM.

`N#Cc1c(-c2ccccc2)/c(=C\Nc2ccc(F)cc2)c(=O)n2c1nc1ccccc12` came in with a TGI of 52.3 µM.

For `Cc1cc2c3c(nc4ccccc42)C(=O)c2ccccc2-c3n1`, the TGI is above 100 µM.

In turn, `CCOC(=O)c1c(C)nc2c3ccccc3c(C#N)c(C)n12` returned a TGI above 100 µM.

`Cc1ccc(C(=C2Sc3ccccc3S2)C(=C2Sc3ccccc3S2)c2ccc(C)s2)s1` showed a TGI above 100 µM.

As for `CC1=NS(=O)(=O)c2ccccc2N1`, the TGI was above 100 µM.

Compound `COP(=O)(/C=C/c1cc(C(=O)OCc2ccccc2)n(S(=O)(=O)c2ccccc2)c1)OC` gave a TGI above 100 µM.

`COc1ccc(NC(=O)CC(=O)N2N=C(N3c4ccccc4Sc4ccccc43)CC2c2ccccc2)cc1` (stereo unspecified) showed a TGI above 100 µM.

Turning to `COc1ccc(C2=N/C(=C\c3ccccc3)C(=O)O2)cc1`, the TGI was above 100 µM.

As to `CSc1nsc(-c2ccccc2)[s+]1`, the TGI was above 100 µM.

`Oc1ccc([I+]c2ccccc2)cc1O` yielded a TGI above 100 µM.

As to `Cc1ccc(-c2[nH]c(=O)n(C3OC(CO)C(O)C(O)C3O)c(=O)c2C#N)cc1` (stereo unspecified), the TGI is above 100 µM.

In the case of `CCN(CC)CCN(C(=Nc1ccccc1)N1CCOCC1)c1ccccc1`, the TGI is above 100 µM.

As to `Cc1cc(C(=O)CCCCOc2ccc(C3=NCCO3)cc2)c(C)n1C`, the TGI amounted to 72.8 µM.

The subject of the next experiment is HOP-92 NSCLC. The experiment is described as follows: NCI-60 cell line screen, 48 h.
For the compound `O=C1NCC2(CCN(CCCC3(c4ccc(F)cc4)OCCO3)CC2)N1c1ccccc1`, the TGI was above 100 µM.

Take `O=C1NCCN1/N=C/c1c(Cl)n(-c2ccccc2)c2ccccc12`: the TGI was found to be 49.7 µM.

As for `CO[C@H]1/C=C(/C)CCC[C@H](C)[C@H](O)[C@@H](C)C(=O)C(C)(C)[C@@H](O)CC(=O)O[C@@H]1/C(C)=C/c1csc(C)n1`, the GI50 is 0.038 µM and the TGI was above 100 µM.

Compound `CC1CCC(C(=O)O)(C(Br)C(=O)O)CC1` (stereo unspecified) showed a TGI above 100 µM.

In turn, `COc1cc(NS(C)(=O)=O)ccc1Nc1cc(C)[nH]c2ccc3nccc3c12` had a TGI above 100 µM.

The compound `CN(C)c1ccc(C(=N/N=C2\C(=O)Nc3ccccc32)c2ccc(N(C)C)cc2)cc1` registered a TGI of 51.2 µM.

`CCCC(=O)OC1CC(n2cc(F)c(=O)[nH]c2=O)OC1COP(=O)(OCC(Cl)(Cl)Cl)OCC(Cl)(Cl)Cl` (stereo unspecified) showed a TGI above 100 µM.

On to `O=[N+]([O-])C(/C=C(\Cl)n1nnc2ccccc21)=C(/Cl)n1nnc2ccccc21`, for which the TGI was above 100 µM.

Turning to `COc1ccc2c(c1)OCC1Cc3ccccc3OC21` (stereo unspecified), the TGI is above 100 µM.

As to `Cc1cc2c3c(nc4ccccc42)C(=O)c2ccccc2-c3n1`, the TGI was above 100 µM.

With `CCOC(=O)c1c(C)nc2c3ccccc3c(C#N)c(C)n12`, the TGI is above 100 µM.

For `CCOC(=O)c1cn2c(nc1=O)N[C@H]1CCCC[C@@H]12`, the TGI is above 100 µM.

`CC1=NS(=O)(=O)c2ccccc2N1`: the TGI is above 100 µM.

`COc1ccc(NC(=O)CC(=O)N2N=C(N3c4ccccc4Sc4ccccc43)CC2c2ccccc2)cc1` (stereo unspecified) showed a TGI above 100 µM.

`CCNC(=O)Cc1nc2c(N)ncnc2n1C1OC(CO)C(O)C1O` (stereo unspecified) showed a TGI above 100 µM.

As to `COc1ccc(C2=N/C(=C\c3ccccc3)C(=O)O2)cc1`, the TGI was above 100 µM.

Regarding `Oc1ccc([I+]c2ccccc2)cc1O`, the TGI was found to be 28.9 µM.

Turning to `Cc1ccc(-c2[nH]c(=O)n(C3OC(CO)C(O)C(O)C3O)c(=O)c2C#N)cc1` (stereo unspecified), the TGI is above 100 µM.

The next experiment has as its system HCT-116 colon. The experiment is described as follows: NCI-60 cell line screen, 48 h.
For `O=C1NCC2(CCN(CCCC3(c4ccc(F)cc4)OCCO3)CC2)N1c1ccccc1`, the TGI is above 100 µM.

Turning to `O=C1c2ccccc2-c2c1c(-c1ccc(F)cc1)nc1ccc3ccccc3c21`, the TGI was above 100 µM.

Compound `O=C(Nc1nccs1)c1c(O)nc2sccn2c1=O` had a TGI above 10 µM.

Compound `O=C1NCCN1/N=C/c1c(Cl)n(-c2ccccc2)c2ccccc12` yielded a TGI of 45.6 µM.

Turning to `CO[C@H]1/C=C(/C)CCC[C@H](C)[C@H](O)[C@@H](C)C(=O)C(C)(C)[C@@H](O)CC(=O)O[C@@H]1/C(C)=C/c1csc(C)n1`, the GI50 is below 0.0129 µM and the TGI is above 100 µM.

Compound `CCC1(CC)C(=O)NN(C(=O)c2ccccc2)C1=O` gave a TGI above 100 µM.

The compound `CC1CCC(C(=O)O)(C(Br)C(=O)O)CC1` (stereo unspecified) yielded a TGI above 100 µM.

In the case of `COc1cc(NS(C)(=O)=O)ccc1Nc1cc(C)[nH]c2ccc3nccc3c12`, the TGI was above 100 µM.

As for `CN(C)c1ccc(C(=N/N=C2\C(=O)Nc3ccccc32)c2ccc(N(C)C)cc2)cc1`, the TGI was 12.3 µM.

As for `CCCC(=O)OC1CC(n2cc(F)c(=O)[nH]c2=O)OC1COP(=O)(OCC(Cl)(Cl)Cl)OCC(Cl)(Cl)Cl` (stereo unspecified), the TGI is above 51.1 µM.

Consider `O=[N+]([O-])C(/C=C(\Cl)n1nnc2ccccc21)=C(/Cl)n1nnc2ccccc21`, for which the TGI is above 100 µM.

`N#Cc1c(-c2ccccc2)/c(=C\Nc2ccc(F)cc2)c(=O)n2c1nc1ccccc12` registered a TGI above 100 µM.

In the case of `COc1ccc2c(C)cc(=O)oc2c1OC`, the TGI is above 100 µM.

With `CN(C)c1ccc(S(=O)Nc2ccccc2)cc1` (stereo unspecified), the TGI was above 100 µM.

Compound `COc1ccc2c(c1)OCC1Cc3ccccc3OC21` (stereo unspecified) showed a TGI above 100 µM.

In turn, `Cc1cc2c3c(nc4ccccc42)C(=O)c2ccccc2-c3n1` registered a TGI of 75.4 µM.

Consider `CCOC(=O)c1c(C)nc2c3ccccc3c(C#N)c(C)n12`, for which the TGI is above 100 µM.

`Cc1ccc(C(=C2Sc3ccccc3S2)C(=C2Sc3ccccc3S2)c2ccc(C)s2)s1` registered a TGI above 100 µM.

The compound `CCOC(=O)c1cn2c(nc1=O)N[C@H]1CCCC[C@@H]12` had a TGI above 100 µM.

Consider `CC1=NS(=O)(=O)c2ccccc2N1`, for which the TGI was above 100 µM.

`COP(=O)(/C=C/c1cc(C(=O)OCc2ccccc2)n(S(=O)(=O)c2ccccc2)c1)OC` gave a TGI above 100 µM.

Compound `COc1ccc(NC(=O)CC(=O)N2N=C(N3c4ccccc4Sc4ccccc43)CC2c2ccccc2)cc1` (stereo unspecified) registered a TGI above 100 µM.

As for `CCNC(=O)Cc1nc2c(N)ncnc2n1C1OC(CO)C(O)C1O` (stereo unspecified), the TGI is above 100 µM.

Regarding `Cc1nc(N)c(N2CCN([N+](=O)[O-])CC2)c(=O)[nH]1`, the TGI was above 100 µM.
